The source of these data is article PMC11990158, “Synthetic Epoxyeicosatrienoic Acid Mimics Protect Mesangial Cells from Sorafenib-Induced Cell Death” (Molecules, 2025).

SMILES strings stand for the structures. pIC50: −log10 of the molar value. Read-outs that look alike come from different tables or passages of the source. Some results are limits rather than exact numbers.

A word on the pIC50: it is the IC50 on a negative log10 scale, so that one unit is a factor of ten.

The target of assay [1] is T1, human soluble epoxide hydrolase (sEH) (Homo sapiens, UniProt P34913).
T1 sequence (P34913 1-555): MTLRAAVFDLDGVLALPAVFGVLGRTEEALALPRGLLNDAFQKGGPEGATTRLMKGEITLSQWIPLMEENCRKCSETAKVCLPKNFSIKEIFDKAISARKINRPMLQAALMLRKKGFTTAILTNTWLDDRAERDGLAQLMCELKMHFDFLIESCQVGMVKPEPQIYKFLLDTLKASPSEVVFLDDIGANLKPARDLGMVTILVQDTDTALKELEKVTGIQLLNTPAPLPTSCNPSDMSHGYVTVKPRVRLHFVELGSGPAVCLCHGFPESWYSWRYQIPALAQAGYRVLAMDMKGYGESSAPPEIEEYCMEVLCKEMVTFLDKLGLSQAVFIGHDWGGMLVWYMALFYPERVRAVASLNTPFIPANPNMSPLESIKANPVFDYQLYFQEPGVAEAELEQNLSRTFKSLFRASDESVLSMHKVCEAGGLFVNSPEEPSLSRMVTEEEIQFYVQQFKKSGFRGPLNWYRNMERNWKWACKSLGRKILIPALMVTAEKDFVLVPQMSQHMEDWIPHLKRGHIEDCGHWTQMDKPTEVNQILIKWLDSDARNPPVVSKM
Kind of assay: Human sEH inhibition, fluorescent assay (MNPC substrate). The assay is classed as biochemical. As to conditions: for pIC50: recombinant purified human sEH, 5 min preincubation at 37 °C, MNPC 5 µM, read-out: HsEH IC50. As to the method:
The inhibition potency of the compounds against the recombinant purified human and mouse sEH and human mEH were measured using sensitive fluorescent assays. The enzymes were diluted to the proper buffer and aliquoted in black 96-well plates. The enzymes were incubated with the inhibitors (0.4 < [I] < 50,000 nM) for 5 min at 37 °C before the introduction of the reporting substrate. For the sEH, nonfluorescent cyano(6-methoxy-naphthalen-2-yl)methyl trans-[(3-phenyloxiran-2-yl)methyl] carbonate MNPC was used as the reporting substrate at a final concentration of 5 μM [51]. For the mEH, cyano(6-methoxy-naphthalen-2-yl)methyl glycidyl carbonate (MNGC) was used at a final concentration of 5 µM. The formation of the product (6-methoxynaphthaldehyde) was measured ([…]) every 30 s for 10 min by a Molecular Device M-2 plate reader. All measurements were performed in triplicate. The inhibitory potency (IC50) was calculated by regression of at least four data points on both sides of the 50% mark.

The test system of assay [2] is human renal mesangial cells (HRMCs). In words: WST-8 cell viability assay, protection against sorafenib-induced cell death. As to conditions: sorafenib 10 µM alone, 48 h. The assay is classed as cell-based. The procedure:
Human renal mesangial cells (4200, ScienCell, Carlsbad, CA, USA) were cultured at 37 °C (in 5% CO2) in RPMI 1640 medium (Gibco™, LS11875093) containing 10% FBS, 100 U/mL of penicillin, and 0.1 mg/mL of streptomycin. The cells were subculture following the protocol of the manufacturer.
WST assay: To evaluate the effect of 8,9-EET analogs and sorafenib on the viability of human renal mesangial cells, a 96-well TPP plate is seeded with cells, which are then allowed to adhere. Over the course of 24 h, they undergo serum starvation before being subject to one of five treatments: Control (no treatment), Sorafenib (10 µM), Sorafenib plus 8,9-EET analogs (1 µM, 3 µM or 10 µM). After 48 h incubation, a WST assay used to gain information on cell survival; we added 10 μL WST reagent per well and incubated for 2 h. WST-8 tetrazolium salt is reduced by cellular dehydrogenases to an orange formazan product that is soluble in tissue culture medium. The amount of formazan produced is directly proportional to the number of living cells and is measured by absorbance at 460 nm. The absorbance at 460 nm is determined using a Synergy 4 Microplate Reader.
For orientation: Formazan colour is commonly taken as a measure of viable cells.

Assay [3] deals with T1, human soluble epoxide hydrolase (sEH). The conditions noted are these: cited from earlier work.

In the case of `CCCCCCCCCCNC(=O)NCCCCOCC(=O)O` [7a, 2-(4-(3-Decylureido)butoxy)acetic Acid], the pIC50 in assay [1] is 6.08.
As to `CCCCCCCCCCCNC(=O)NCCCCOCC(=O)O` [7b, 2-(4-(3-Undecylureido)butoxy)acetic Acid], the pIC50 in assay [1] was 5.74.
Turning to `CCCCCCCCCCNC(=O)NC/C=C\COCC(=O)O` [7c, (Z)-2-((4-(3-Decylureido)but-2-en-1-yl)oxy)acetic Acid], the pIC50 in assay [1] was 5.68.
Same read-out and setting: the value for `CCCCCCCC/C=C\CNC(=O)NCCCCOCC(=O)O` [7e, (Z)-2-(4-(3-(undec-2-en-1-yl)ureido)butoxy)acetic Acid] was 5.80; that for `CCCCCCCC/C=C\CNC(=O)NC/C=C\COCC(=O)O` [7f, 2-(((Z)-4-(3-((Z)-undec-2-en-1-yl)ureido)but-2-en-1-yl)oxy)acetic Acid] was 5.59; that for `CCCCCCCCCCNC(=O)C(=O)NCCCCCC(=O)O` [8a, 6-(2-(Decylamino)-2-oxoacetamido)hexanoic Acid] was 4.29.
As to `CCCCCCCCCCCNC(=O)C(=O)NCCCCCC(=O)O` [8b, 6-(2-Oxo-2-(undecylamino)acetamido)hexanoic Acid], in assay [1], the “sEH inhibition (in words)” value is recorded as “insignificant inhibitor of sEH” and the pIC50 was under 4.00.
In the case of `CCCCCCCCCNC(=O)C(=O)NCCCCCCC(=O)O` [8c, 7-(2-(Nonylamino)-2-oxoacetamido)heptanoic Acid], the pIC50 in assay [1] was 4.19.
On the same count and under the same terms, the value for `CCCCCCCCCCNC(=O)C(=O)NCCCCCCC(=O)O` [8d, 7-(2-(Decylamino)-2-oxoacetamido)heptanoic Acid] was 4.31; that for `CCCCCCCC/C=C\CNC(=O)C(=O)NCCCCCC(=O)O` [8e, (Z)-6-(2-Oxo-2-(undec-2-en-1-ylamino)acetamido)hexanoic Acid] was 4.72.
On the same count and under the same terms, the result for `CCCCCCCCCCCC(=O)NCCCCCC(=O)O` [9a, 6-Dodecanamidohexanoic Acid] reads 5.02; that for `CCCCCCCCCCCCC(=O)NCCCCCC(=O)O` [9b, 6-Tridecanamidohexanoic Acid], 5.19.
In the case of `CCCCCCCCCCCC(=O)NCCCCCCC(=O)O` [9c, 7-Dodecanamidoheptanoic Acid], in assay [1], the pIC50 was 5.64.
For the compound `CCCCCCCCCCCCC(=O)NCCCCCCC(=O)O` [9d, 7-Tridecanamidoheptanoic Acid], the pIC50 in assay [1] is 5.62.
Regarding `CCCCCCCCCCCNC(=O)CCCCCCC(=O)O` [10a, 8-Oxo-8-(undecylamino)octanoic Acid], the pIC50 in assay [1] was 5.46.
For the compound `CCCCCCCCCCCCNC(=O)CCCCCCC(=O)O` [10b, 8-(Dodecylamino)-8-oxooctanoic Acid], in assay [1], the pIC50 was 5.57.
On the same count and under the same terms, the value for `CCCCCCCCCCCNC(=O)CCCCCCCC(=O)O` [10c, 9-Oxo-9-(undecylamino)nonanoic Acid] was 6.05; that for `CCCCCCCC/C=C\CNC(=O)CCCCCCCC(=O)O` [10d, (Z)-9-Oxo-9-(undec-2-en-1-ylamino)nonanoic Acid] was 6.09.
For `CNC(=O)c1cc(Oc2ccc(NC(=O)Nc3ccc(Cl)c(C(F)(F)F)c3)cc2)ccn1` [Sorafenib], the “cells dying on sorafenib exposure” value in assay [2] was “around 90%”. The “sEH inhibition (in words)” value in assay [3] was “potent sEH inhibitor”.
